Test results: patent publication US20260115185A1, “QUINOLINE DERIVATIVES WHICH ACT AS KAPPA-OPIOID RECEPTOR ANTAGONISTS” (The Scripps Research Institute, priority 2023, published 2026)

Assays:
[1] = target: T1, mu opioid receptor (MOR) (Homo sapiens, UniProt P35372); assay: OPRMu1 Discover X β-arrestin Assay, antagonist mode (U2OS cells, DAMGO EC80 challenge); format: cell-based
T1 construct: host or cells: U2OS (Discover X OPRMu1-U2OS, PathHunter)
Excerpt: OPRMu1 Discover X—β-arrestin Assay—Antagonist Mode. […] This assay evaluates the OPRMu1 activation in membrane recruitment of β-arrestin. In addition, the assay evaluates GPCR-β-arrestin proximity using low affinity fragment complementation of beta-galactosidase (beta-gal). The assay employs U20S cells, which express OPRMu1 fused to the complementary beta-gal fragment (enzyme acceptor). As designed, compounds that act as antagonists will prevent receptor activation resulting in reduced well luminescence. Compounds were tested in quadruplicate using a 10-point, 1:3 dilution series starting at a nominal concentration of 10 micromolar.
The Discover X OPRMu1-U20S cell line was cultured in 150 mm dishes at 37° C., 5% CO2 and 95% relative humidity (RH).
On Day 1 of the assay, 5000 cells in 20 μL of assay buffer (Discover X's Cell Plating Reagent 5) were seeded into each well of a 384 Corning 3570 standard white plate, and incubated 16-24 hours at 37° C., 5% CO2 and 95% RH.
On Day 2, 100 nL of test compound in DMSO were added to the appropriate wells and the plates were then incubated for 30 min at 37° C. 5% CO2 and 95% RH. Next, 2.2 μL of DAMGO OPRMu1 agonist (commercially available) or DMSO in assay media. (The EC80 Challenge consists of 1.8 μL of 3.7 μM DAMGO, 0.4 μL of Assay Buffer, with a final assay concentration of 303 nM). After incubation for 3 hours at 37° C. 5% CO2, and 95% RH, 10 μL of Path Hunter Detection Mix was added to each well, and the plate was then incubated at room temperature in the dark for 1 hour. Well luminescence was measured on Perkin Elmer's Envision.
(§1) The Percent Inhibition was calculated from the median ratio as follows:
• DMEM Medium, (Invitrogen 11965) • F12 Medium, (Invitrogen 11765) • Heat Inactivated Fetal Bovine Serum, (Invitrogen 10082147) • Non Essential Amino Acids 100× (Invitrogen 11140-050) • HEPES (pH 7.3) 1M, (Invitrogen 15630-080) • Sodium Pyruvate 100× (Invitrogen 11360-070) • Penicillin Streptomycin, (Invitrogen 15640) • Trypsin 0.25% EDTA (Invitrogen 25200056) • DPBS without Calcium/Magnesium (Invitrogen 14190-136) • DMSO Dry (Sigma D2650) • DAMGO OPRMu1 Agonist MW513.19 (Sigma E7384-5MG) • B-Funaltrexamine Hydrochloride OPRM1 Antagonist MW (SIGMA 0003-2MG) • PathHunter Cell Plating 5 Reagent (Discover X 93-0563R5A) • Corning 3750 Standard 384 well white plate with lid.
PathHunter Detection Mix (DiscoverX 93-0001): 1 part Galacton Star/5 parts Emerald II/19 parts PH Cell Assay Buffer.

[2] = target: T2, kappa opioid receptor (KOR) (Homo sapiens, UniProt P41145); assay: OPRKappa 1 Tango B-Arrestin Assay, antagonist mode (Tango OPRK1-bla U2OS cells, U50488 EC80 challenge); format: cell-based; conditions: for Selectivity (MOR/KOR): Kappa selectivity, MOR IC50 / KOR IC50; for IC50: antagonist mode, Tango OPRK1-bla U2OS cells, 6 nM U50488 challenge
T2 construct: host or cells: U2OS (Tango OPRK1-bla U2OS)
T2 sequence (P41145 whole entry): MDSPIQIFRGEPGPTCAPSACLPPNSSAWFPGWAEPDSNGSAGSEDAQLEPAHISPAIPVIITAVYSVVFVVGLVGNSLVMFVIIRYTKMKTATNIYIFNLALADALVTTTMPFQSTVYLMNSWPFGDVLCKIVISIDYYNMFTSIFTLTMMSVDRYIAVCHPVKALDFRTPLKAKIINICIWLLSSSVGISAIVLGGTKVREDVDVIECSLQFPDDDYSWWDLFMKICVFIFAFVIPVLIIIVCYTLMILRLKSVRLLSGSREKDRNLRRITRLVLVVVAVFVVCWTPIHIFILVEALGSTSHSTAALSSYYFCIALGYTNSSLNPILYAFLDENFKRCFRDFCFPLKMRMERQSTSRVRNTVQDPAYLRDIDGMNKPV
Excerpt: OPRKappa 1 Tango B-Arrestin Assay Protocol-Antagonist Mode. […] The assay uses Tango OPRK1-bla U2OS cells which express OPRK1 linked to a GAL4-VP16 transcription factor via a TEV protease site. The cells also express a β-arrestin/TEV protease fusion protein and a β-lactamase (BLA) reporter gene under the control of a UAS response element. Stimulation of the OPRK1 receptor by agonist causes migration of the β-arrestin fusion protein to the GPCR, and through proteolysis liberates GAL4-VP16 from the receptor. The liberated VP16-GAL4 migrates to the nucleus, where it induces transcription of the BLA gene. BLA expression is monitored by measuring fluorescence resonance energy transfer (FRET) of a cleavable, fluorogenic, cell-permeable BLA substrate. As designed, test compounds that are OPRK1 antagonists inhibit agonist activation and migration of the fusion protein, thus preventing proteolysis of GAL4-VP16 and BLA transcription, leading to no increase in well FRET. Compounds were tested in quadruplicate using a 10-point, 1:3 dilution series starting at a nominal concentration of 10 micromolar.
The Tango OPRK1-U20S Dividing cell line was routinely cultured in 150 mm dishes at 37C, 5% CO2 and 95% relative humidity (RH).
On Day 1 of the assay, 16,000 cells in 10 μL of assay media (DMEM-Glutamax—with Sodium Pyruvate, 10% fetal bovine serum stripped with charcoal-dextran (CDS), 25 mM HEPES, 0.1 mM non-essential amino acids, antibiotic mix (penicillin streptomycin)) were seeded into each well of a 384 Greiner 788092 black low profile, clear bottom, low volume plate, and incubated 16-24 hours at 37° C., 5% CO2 and 95% (RH).
On Day 2, 50 nL of test compound in DMSO was added to the appropriate wells and plates were incubated for 30 min at 37° C. 5% CO2 and 95% (RH). Next was added 0.65 μL of commercially available U50488 OPRK1 agonist or DMSO in assay media: this EC80 Challenge consists of 0.6 μL of 111 nM U50488 to yield a final assay concentration of 6 nM). After incubation for 4 hours at 37° C., 5% CO2 and 95% (RH), 2.5 μL of LiveBLazer™FRET B/G (CCF4-AM) Mix (Soln.'s A,B,C,&D) was added to each well and incubated at room temperature in the dark for 2 hours. Well fluorescence was measured on Perkin Elmer's Envision using an Excitation filter 409 nm, Emission filters at 460 nm and […], bottom read.
as §1
• Tango™OPRK1-bla U20S Cells (Invitrogen K1576) • McCoy's 5A Medium, (Invitrogen 16600-082) • Dialyzed Fetal Bovine Serum, (Invitrogen 26400-036) • Non Essential Amino Acids 100× (Invitrogen part 11140-050) • HEPES (pH 7.3) 1M, (Invitrogen 15630-080) • Sodium Pyruvate 100× (Invitrogen 11360-070) • Penicillin Streptomycin, (Invitrogen 15640) • Trypsin 0.25% EDTA (Invitrogen 25200056) • DPBS without Calcium/Magnesium (Invitrogen 14190-136) • DMEM, High Glucose, GlutaMAX (Invitrogen 10569-010) • Fetal Bovine Serum, Charcoal Stripped (Invitrogen 12676-011) • DMSO Dry (Sigma D2650) • U50488 OPRK1 Agonist MW410.29 (Tocris 67198-19-0) • GNTI dihydrochloride OPRK1 Antagonist MW571.5 (Tocris 1282) • Nor-Binaltorphimine dihydrochloridc MW770.75 (Tocris 0347)
LiveBLAzere™-FRET/BG Loading Mix: (Invitrogen K1030 (5 mg)), composed of Solutions A, B, C, and D: • Solution A (6 μL): LiveBLAzer™-FRET/BG Substrate (CCF4-AM) • Solution B (60 μL) • Solution C (904 μL) • Solution C (must add 250 μl of 1N NaOH to 45 mL of Solution C prior to use) • Solution D (30 μL) [Probinicid] (Sigma P8161) make 200 mM stock in NaOH—H2O.

T1 sequence (P35372 whole entry): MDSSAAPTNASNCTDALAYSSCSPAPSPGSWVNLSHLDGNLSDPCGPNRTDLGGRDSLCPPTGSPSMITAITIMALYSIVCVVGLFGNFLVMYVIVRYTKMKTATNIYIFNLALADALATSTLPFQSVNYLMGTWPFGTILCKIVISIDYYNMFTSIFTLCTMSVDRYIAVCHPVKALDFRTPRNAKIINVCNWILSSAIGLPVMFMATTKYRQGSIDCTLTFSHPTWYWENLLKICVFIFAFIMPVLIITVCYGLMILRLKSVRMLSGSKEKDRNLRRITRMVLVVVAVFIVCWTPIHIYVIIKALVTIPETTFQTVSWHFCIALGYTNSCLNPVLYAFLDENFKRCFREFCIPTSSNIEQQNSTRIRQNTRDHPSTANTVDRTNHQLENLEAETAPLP

IC50 [1] | IC50 [2] | Compound | Selectivity (MOR/KOR) [2]
> 1000 nM | ≥ 100 nM | CCc1cc(-c2cc[nH]n2)c2nc(N3CCNC[C@H]3C)c(-c3ccn(C)n3)c(C)c2c1 [Compound 12, (R)-6-ethyl-4-methyl-3-(1-methyl-1H-pyrazol-3-yl)-2-(2-methylpiperazin-1-yl)-8-(1H-pyrazol-3-yl)quinoline] | + (less than 10-fold selectivity)
> 1000 nM | ≥ 100 nM | CCc1cc(F)c2nc(N3CCNC[C@H]3C)c(-c3ccn(C)n3)c(C)c2c1 [Compound 13, (R)-6-ethyl-8-fluoro-4-methyl-3-(1-methyl-1H-pyrazol-3-yl)-2-(2-methylpiperazin-1-yl)quinoline] | ++ (between 10- and 100-fold selectivity)
100 to 1000 nM | 1 to 10 nM | CCc1cc(F)c2nc(N3CCC(N[C@@H]4CCOC[C@@H]4F)CC3)c(-c3cc(C)n(C)n3)c(C)c2c1 [Compound 14, 1-(3-(1,5-dimethyl-1H-pyrazol-3-yl)-6-ethyl-8-fluoro-4-methylquinolin-2-yl)-N-((3R,4R)-3-fluorotetrahydro-2H-pyran-4-yl)piperidin-4-amine] | +++ (between 100- to 1000-fold selective)
10 to 100 nM | 1 to 10 nM | CCc1cc(-c2ccnn2C)c2nc(N3CC[C@@H](NC4CCOCC4)[C@@H](F)C3)c(-c3ccn(C)n3)c(C)c2c1 [Compound 15, (3S,4R)-1-(6-ethyl-4-methyl-3-(1-methyl-1H-pyrazol-3-yl)-8-(1-methyl-1H-pyrazol-5-yl)quinolin-2-yl)-3-fluoro-N-(tetrahydro-2H-pyran-4-yl)piperidin-4-amine] | ++ (between 10- and 100-fold selectivity)
100 to 1000 nM | 1 to 10 nM | CCc1cc(F)c2nc(N3CCC(N[C@H]4CCOC[C@@H]4O)CC3)c(-c3cc(C)n(C)n3)c(C)c2c1 [Compound 16, (3R,4S)-4-((1-(3-(1,5-dimethyl-1H-pyrazol-3-yl)-6-ethyl-8-fluoro-4-methylquinolin-2-yl)piperidin-4-yl)amino)tetrahydro-2H-pyran-3-ol] | ++ (between 10- and 100-fold selectivity)
100 to 1000 nM | 1 to 10 nM | CCc1cc(F)c2nc(N3CCC(N[C@@H]4CCOC[C@H]4O)CC3)c(-c3cc(C)n(C)n3)c(C)c2c1 [Compound 17, (3S,4R)-4-((1-(3-(1,5-dimethyl-1H-pyrazol-3-yl)-6-ethyl-8-fluoro-4-methylquinolin-2-yl)piperidin-4-yl)amino)tetrahydro-2H-pyran-3-ol] | ++ (between 10- and 100-fold selectivity)
> 1000 nM | 1 to 10 nM | CCc1cc(F)c2nc(N3CCC(N[C@H]4CCOC4)CC3)c(-c3cc(C)n(C)n3)c(C)c2c1 [Compound 18, (S)-1-(3-(1,5-dimethyl-1H-pyrazol-3-yl)-6-ethyl-8-fluoro-4-methylquinolin-2-yl)-N-(tetrahydrofuran-3-yl)piperidin-4-amine] | +++ (between 100- to 1000-fold selective)
100 to 1000 nM | 1 to 10 nM | CCc1cc(F)c2nc(N3CCC(NCC4(F)CC4)CC3)c(-c3cc(C)n(C)n3)c(C)c2c1 [Compound 19, 1-(3-(1,5-dimethyl-1H-pyrazol-3-yl)-6-ethyl-8-fluoro-4-methylquinolin-2-yl)-N-((1-fluorocyclopropyl)methyl)piperidin-4-amine] | +++ (between 100- to 1000-fold selective)
10 to 100 nM | < 1 nM | CCc1cc(-c2ccnn2C)c2nc(N3CCC(N[C@@H]4CCOC[C@@H]4F)CC3)c(-c3ccn(C)n3)c(C)c2c1 [Compound 20, 1-(6-ethyl-4-methyl-3-(1-methyl-1H-pyrazol-3-yl)-8-(1-methyl-1H-pyrazol-5-yl)quinolin-2-yl)-N-((3R,4R)-3-fluorotetrahydro-2H-pyran-4-yl)piperidin-4-amine] | ++ (between 10- and 100-fold selectivity)
10 to 100 nM | 1 to 10 nM | CCc1cc(-c2ccnn2C)c2nc(N3CCC(N[C@H]4CCOC[C@H]4F)CC3)c(-c3ccn(C)n3)c(C)c2c1 [Compound 21, 1-(6-ethyl-4-methyl-3-(1-methyl-1H-pyrazol-3-yl)-8-(1-methyl-1H-pyrazol-5-yl)quinolin-2-yl)-N-((3S,4S)-3-fluorotetrahydro-2H-pyran-4-yl)piperidin-4-amine] | ++ (between 10- and 100-fold selectivity)
100 to 1000 nM | 1 to 10 nM | CCc1cc(-c2ccnn2C)c2nc(N3CCC(N[C@@H]4CCOC[C@H]4F)CC3)c(-c3ccn(C)n3)c(C)c2c1 [Compound 22, 1-(6-ethyl-4-methyl-3-(1-methyl-1H-pyrazol-3-yl)-8-(1-methyl-1H-pyrazol-5-yl)quinolin-2-yl)-N-((3S,4R)-3-fluorotetrahydro-2H-pyran-4-yl)piperidin-4-amine] | ++ (between 10- and 100-fold selectivity)
> 1000 nM | ≥ 100 nM | CCc1cc(-c2ccnn2C)c2nc(N3CCC(N)CC3)c(-c3ccn(C)n3)c(C)c2c1 [Compound 23, 1-(6-ethyl-4-methyl-3-(1-methyl-1H-pyrazol-3-yl)-8-(1-methyl-1H-pyrazol-5-yl)quinolin-2-yl)piperidin-4-amine] | + (less than 10-fold selectivity)
